Data as given in PubChem BioAssay AID1259407 (Chemical Carcinogenesis Research Information System (CCRIS), 2018).
The source made the active and inactive calls. No rule for the calls is given here.

Test system: CCRIS mutagenicity, Ames/micronucleus/aberration tests
Test: CCRIS mutagenicity studies
[1] = Test System: AMES SALMONELLA TYPHIMURIUM, Strain/Indicator: TA98, Metabolic Activation: NONE, Method: STANDARD PLATE
[2] = Test System: AMES SALMONELLA TYPHIMURIUM, Strain/Indicator: TA98, Metabolic Activation: RAT, LIVER, S-9, AROCLOR 1254, Method: STANDARD PLATE
[3] = Test System: AMES SALMONELLA TYPHIMURIUM, Strain/Indicator: TA100, Metabolic Activation: NONE, Method: STANDARD PLATE
[4] = Test System: AMES SALMONELLA TYPHIMURIUM, Strain/Indicator: TA100, Metabolic Activation: RAT, LIVER, S-9, AROCLOR 1254, Method: STANDARD PLATE
[5] = Test System: MOUSE LYMPHOMA, Strain/Indicator: L5178Y (TK+/TK-), Metabolic Activation: RAT, LIVER, S-9, AROCLOR 1254, Method: SUSPENSION/PLATE
[6] = Test System: AMES SALMONELLA TYPHIMURIUM, Strain/Indicator: TA98, Metabolic Activation: NONE, Method: PREINCUBATION
[7] = Test System: AMES SALMONELLA TYPHIMURIUM, Strain/Indicator: TA100, Metabolic Activation: NONE, Method: PREINCUBATION

Question: With `C=CC(=O)OCC(CC)(COC(=O)C=C)COC(=O)C=C` as the molecule, how does the mutagenic call (End Point: In vivo micronucleus, Test System: Peripheral blood normochromatic erythrocytes, Species: Mouse, Strain/Sex: B6C3F1/Female, Route: Dermal) read?
Answer: inactive; negative

Question: What about the mutagenic call (End Point: In vivo micronucleus, Test System: Peripheral blood normochromatic erythrocytes, Species: Mouse, Strain/Sex: B6C3F1/Male, Route: Dermal) of the same molecule?
Answer: inactive; negative

Question: What about the mutagenic call (End Point: In vivo micronucleus, Test System: Peripheral blood normochromatic erythrocytes, Species: Mouse, Strain/Sex: FVB.N/TgN (v-Ha-ras) Tg.AC hemizygous/Female, Route: Dermal) of the same molecule?
Answer: inactive; negative, purity 80%

Question: What about the mutagenic call (End Point: In vivo micronucleus, Test System: Peripheral blood normochromatic erythrocytes, Species: Mouse, Strain/Sex: FVB.N/TgN (v-Ha-ras) Tg.AC hemizygous/Male, Route: Dermal) of the same molecule?
Answer: inactive; negative

Question: And the mutagenic call (Test System: AMES SALMONELLA TYPHIMURIUM, Strain/Indicator: TA98, Metabolic Activation: HAMSTER, LIVER, S-9, AROCLOR 1254, Method: STANDARD PLATE)?
Answer: inactive; negative

Question: What about the mutagenic call [1] of the same molecule?
Answer: inactive; negative

Question: What about the mutagenic call [2] of the same molecule?
Answer: inactive; negative

Question: What about the mutagenic call (Test System: AMES SALMONELLA TYPHIMURIUM, Strain/Indicator: TA100, Metabolic Activation: HAMSTER, LIVER, S-9, AROCLOR 1254, Method: STANDARD PLATE) of the same molecule?
Answer: inactive; negative

Question: What about the mutagenic call [3] of the same molecule?
Answer: inactive; negative

Question: And the mutagenic call [4]?
Answer: inactive; negative

Question: And the mutagenic call (Test System: AMES SALMONELLA TYPHIMURIUM, Strain/Indicator: TA1535, Metabolic Activation: HAMSTER, LIVER, S-9, AROCLOR 1254 (5-20%), Method: STANDARD PLATE)?
Answer: active; positive

Question: And the mutagenic call (Test System: AMES SALMONELLA TYPHIMURIUM, Strain/Indicator: TA1535, Metabolic Activation: HAMSTER, LIVER, S-9, AROCLOR 1254, Method: STANDARD PLATE)?
Answer: active; positive

Question: And the mutagenic call (Test System: AMES SALMONELLA TYPHIMURIUM, Strain/Indicator: TA1535, Metabolic Activation: NONE, Method: STANDARD PLATE)?
Answer: inactive; negative

Question: And the mutagenic call (Test System: AMES SALMONELLA TYPHIMURIUM, Strain/Indicator: TA1537, Metabolic Activation: HAMSTER, LIVER, S-9, AROCLOR 1254, Method: STANDARD PLATE)?
Answer: inactive; negative

Question: What about the mutagenic call (Test System: AMES SALMONELLA TYPHIMURIUM, Strain/Indicator: TA1537, Metabolic Activation: NONE, Method: STANDARD PLATE) of the same molecule?
Answer: inactive; negative

Question: And the mutagenic call (Test System: AMES SALMONELLA TYPHIMURIUM, Strain/Indicator: TA1537, Metabolic Activation: RAT, LIVER, S-9, AROCLOR 1254, Method: STANDARD PLATE)?
Answer: inactive; negative

Question: What about the mutagenic call (Test System: CHINESE HAMSTER OVARY, Strain/Indicator: CHO-K1-BH4 (HGPRT)/6-THIOGUANINE, Metabolic Activation: NONE, Method: SUSPENSION/PLATE) of the same molecule?
Answer: inactive; negative

Question: And the mutagenic call (Test System: CHINESE HAMSTER OVARY, Strain/Indicator: CHO-K1-BH4 (HGPRT), Metabolic Activation: NONE)?
Answer: active; positive

Question: What about the mutagenic call (Test System: CHINESE HAMSTER OVARY, Strain/Indicator: CHO-K1-BH4 (HGPRT), Metabolic Activation: NONE, Method: MONOLAYER) of the same molecule?
Answer: inactive; negative

Question: What about the mutagenic call (Test System: CHINESE HAMSTER OVARY, Strain/Indicator: CHO-K1-BH4 (HGPRT), Metabolic Activation: NONE, Method: SUSPENSION/PLATE) of the same molecule?
Answer: active; positive

Question: What about the mutagenic call [5] of the same molecule?
Answer: inactive; negative

Question: And the mutagenic call (Test System: Mouse lymphoma, Strain/Indicator: L5178Y (tk+/tk-), Metabolic Activation: None, Method: Suspension/plate)?
Answer: active; positive

Question: What about the mutagenic call (Test System: Mouse lymphoma, Strain/Indicator: L5178Y (tk+/tk-), Metabolic Activation: Rat, Liver, S-9, Aroclor 1254, Method: Suspension/plate) of the same molecule?
Answer: active; positive

Question: Which mutagenic call [1] does the source give for `CC(=O)Nc1ccccc1C` here?
Answer: inactive; negative

Question: What about the mutagenic call [2] of the same molecule?
Answer: inactive; negative

Question: What about the mutagenic call [3] of the same molecule?
Answer: inactive; negative

Question: And the mutagenic call [4]?
Answer: inactive; negative

Question: Which results are given for `COc1ccc2c(c1)C(=O)c1nccc3cc4c(c-2c13)OCO4`?
Answer: mutagenic call (Test System: AMES SALMONELLA TYPHIMURIUM, Strain/Indicator: TA98, Metabolic Activation: RAT, LIVER, S-9, PHENOBARBITAL AND BETA-NAPHTHOFLAVONE, Method: PREINCUBATION): active; positive; mutagenic call (Test System: AMES SALMONELLA TYPHIMURIUM, Strain/Indicator: TA100, Metabolic Activation: RAT, LIVER, S-9, PHENOBARBITAL AND BETA-NAPHTHOFLAVONE, Method: PREINCUBATION): active; positive

Question: How did the mutagenic call (Test System: AMES SALMONELLA TYPHIMURIUM, Strain/Indicator: TA98, Metabolic Activation: HAMSTER, LIVER, S-9, AROCLOR 1254, Method: PREINCUBATION) turn out when `C1CS1` was run?
Answer: inactive; negative

Question: What about the mutagenic call [6] of the same molecule?
Answer: inactive; negative

Question: And the mutagenic call (Test System: AMES SALMONELLA TYPHIMURIUM, Strain/Indicator: TA98, Metabolic Activation: RAT, LIVER, S-9, AROCLOR 1254, Method: PREINCUBATION)?
Answer: inactive; negative

Question: And the mutagenic call (Test System: AMES SALMONELLA TYPHIMURIUM, Strain/Indicator: TA100, Metabolic Activation: HAMSTER, LIVER, S-9, AROCLOR 1254, Method: PREINCUBATION)?
Answer: active; positive

Question: And the mutagenic call [7]?
Answer: active; positive

Question: What about the mutagenic call (Test System: AMES SALMONELLA TYPHIMURIUM, Strain/Indicator: TA100, Metabolic Activation: RAT, LIVER, S-9, AROCLOR 1254, Method: PREINCUBATION) of the same molecule?
Answer: active; positive

Question: And the mutagenic call (Test System: MOUSE LYMPHOMA, Strain/Indicator: L5178Y (TK+/TK-), Metabolic Activation: NONE, Method: SUSPENSION/PLATE)?
Answer: active; positive. reevaluation of results: positive

Question: What about the mutagenic call [5] of the same molecule?
Answer: active; positive. reevaluation of results: positive

Question: What does the source list for `[Be+2]`?
Answer: mutagenic call [6]: inactive; negative; mutagenic call (Test System: AMES SALMONELLA TYPHIMURIUM, Strain/Indicator: TA98, Metabolic Activation: RAT, LIVER, S-9, (10%), Method: PREINCUBATION): inactive; negative; mutagenic call [7]: inactive; negative; mutagenic call (Test System: AMES SALMONELLA TYPHIMURIUM, Strain/Indicator: TA100, Metabolic Activation: RAT,LIVER, S-9 (10%), Method: PREINCUBATION): inactive; negative

Question: How did the mutagenic call [3] turn out when `O=c1[nH]sc2cc([N+](=O)[O-])ccc12` was run?
Answer: active; positive
